Laboratory results from patent US8741888B2, “Sleep aid composition and method” (priority 2010, dated 2014).
Like-named read-outs stand apart in the source and are kept apart here.

Tests used:
[1] = previous range about 170-174 pounds held for ten years
human [2] = tested on: human
human [3] = conditions: cited from earlier work

Row | Structure (SMILES) | body weight [1] [pounds] | drowsiness after getting up (human [2]; quetiapine (Seroquel) alone, 75 mg reduced gradually to 50 mg) | drowsiness after getting up (human [2]; quetiapine alone, 25 mg) | time the drug had to be taken before going to bed (human [2]; quetiapine alone, 25 mg) | grogginess after additional dose taken during the night (human [2]; quetiapine alone, 25 mg plus additional quetiapine) | dosage ultimately required after development of tolerance (human [3]; quetiapine, Mariani et al. report) [mg] | time after ingestion before the drug enters the system (human [3]; quetiapine, background) | side effect at recommended amounts (human [3]; quetiapine, Wikipedia, Seroquel prescribing information) | ability to sleep without the drug (dependence) (human [2]; after extended use of zolpidem alone) | time asleep before getting up to empty their bladder (human [2]; inventor, nightly use) | time kept asleep per dose (human [2]; zolpidem (Ambien) alone) | duration of effectiveness (human [3]; zolpidem alone, background) | time of use after which tolerance can develop (human [3]; zolpidem alone, background) | period of use after which the drug becomes addictive (human [3]; zolpidem alone, Kirkwood, Mariani et al.) | effectiveness in maintaining sleep (human [3]; zolpidem, Wikipedia, Rosenberg 2006)
1 | OCCOCCN1CCN(C2=Nc3ccccc3Sc3ccccc32)CC1 [quetiapine] | 184 | leaving them drowsy, especially in the mornings | did not leave them drowsy after getting up | an hour to an hour and a half | left them a bit groggy during the early part of the day | 800 | about an hour or more | somnolence (drowsiness) | – | – | – | – | – | – | –
2 | Cc1ccc(-c2nc3ccc(C)cn3c2CC(=O)N(C)C)cc1 [zolpidem] | – | – | – | – | – | – | – | – | unable to sleep without zolpidem | four or even three | about four | about four | just a few weeks | about two months or longer | has not adequately demonstrated effectiveness in maintaining sleep
